Molecular target: human PCSK9 (Homo sapiens, UniProt Q8NBP7)
Assay: PCSK9 ligand binding TR-FRET assay (interference with binding of human PCSK9 to human LDLR)
Conditions: for Max % inhibition: PCSK9 FRET assay, efficacy (Amax), 100% = 1 uM unlabeled human PCSK9, 0% = DMSO; for IC50: TR-FRET, human PCSK9 Alexa Fluor 647 / human LDLR extracellular domain-Europium Kryptate, read-out: PCSK9 FRET Assay IC50
Procedure, shortened: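 Threefold compound dilutions were pre-incubated 30 min with PCSK9, after which 4 nM Europium Kryptate-tagged human LDLR ectodomain was added for a further 2 h.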

Chain of human PCSK9 (Q8NBP7 153-692): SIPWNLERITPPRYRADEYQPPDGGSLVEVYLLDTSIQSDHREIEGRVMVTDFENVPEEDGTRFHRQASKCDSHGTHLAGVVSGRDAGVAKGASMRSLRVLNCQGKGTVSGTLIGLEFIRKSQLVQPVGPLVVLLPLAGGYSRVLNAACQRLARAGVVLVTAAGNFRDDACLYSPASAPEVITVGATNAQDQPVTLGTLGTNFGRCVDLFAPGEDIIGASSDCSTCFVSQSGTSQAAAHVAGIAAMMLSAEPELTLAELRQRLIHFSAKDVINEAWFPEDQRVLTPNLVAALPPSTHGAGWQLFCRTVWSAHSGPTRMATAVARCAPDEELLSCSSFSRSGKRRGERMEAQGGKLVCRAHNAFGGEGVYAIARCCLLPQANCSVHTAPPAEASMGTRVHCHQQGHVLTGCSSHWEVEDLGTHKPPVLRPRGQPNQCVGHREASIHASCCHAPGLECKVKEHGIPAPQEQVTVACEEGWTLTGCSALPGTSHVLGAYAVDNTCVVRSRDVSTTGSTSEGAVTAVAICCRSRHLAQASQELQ
Chain of human PCSK9 (Q8NBP7 31-152 partner limits assumed): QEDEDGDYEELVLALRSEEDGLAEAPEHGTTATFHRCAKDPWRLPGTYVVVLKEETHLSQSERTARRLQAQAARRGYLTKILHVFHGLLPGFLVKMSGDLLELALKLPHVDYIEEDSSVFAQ

Row | Max % inhibition [%] | IC50 [nM] | Compound
1 | 55.01 | 7.8 | COC[C@@H]1NC(=O)[C@H](C)N(Cc2ccc(Cl)cc2Oc2ccc(-n3cc(CN4CCCC4)nn3)cc2)C(=O)C[C@@H](Cc2ccccc2)C(=O)N(C)[C@@H](C)CNC(=O)C[C@H](Cc2ccc(Cl)cc2)N(C)C1=O [Compound 127, (2S,5S,8S,13S,16R)-16-benzyl-1-(4-chloro-2-(4-(4-(pyrrolidin-1-ylmethyl)-1H-1,2,3-triazol-1-yl)phenoxy)benzyl)-8-(4-chlorobenzyl)-5-(methoxymethyl)-2,7,13,14-tetramethyl-1,4,7,11,14-pentaazacyclooctadecane-3,6,10,15,18-pentaone]
2 | 51.35 | 20.4 | COC[C@@H]1NC(=O)[C@H](C)N(Cc2ccc(Cl)cc2Oc2ccc(-n3cc(CN4CCCCC4)nn3)cc2)C(=O)C[C@@H](Cc2ccccc2)C(=O)N(C)[C@@H](C)CNC(=O)C[C@H](Cc2ccc(Cl)cc2)N(C)C1=O [Compound 128, (2S,5S,8S,13S,16R)-16-benzyl-1-(4-chloro-2-(4-(4-(piperidin-1-ylmethyl)-1H-1,2,3-triazol-1-yl)phenoxy)benzyl)-8-(4-chlorobenzyl)-5-(methoxymethyl)-2,7,13,14-tetramethyl-1,4,7,11,14-pentaazacyclooctadecane-3,6,10,15,18-pentaone]
3 | 94.48 | 6.3 | COC[C@@H]1NC(=O)[C@H](C)N(Cc2ccc(Cl)cc2Oc2ccc(-c3nnc4n3CCN(C(=O)[C@@H]3CCNC3)C4)cc2)C(=O)C[C@@H](Cc2ccccc2)C(=O)N(C)[C@@H](C)CNC(=O)C[C@H](Cc2ccc(Cl)cc2)N(C)C1=O [Compound 129, (2S,5S,8S,13S,16R)-16-benzyl-1-(4-chloro-2-(4-(7-((R)-pyrrolidine-3-carbonyl)-5,6,7,8-tetrahydro-[1,2,4]triazolo[4,3-a]pyrazin-3-yl)phenoxy)benzyl)-8-(4-chlorobenzyl)-5-(methoxymethyl)-2,7,13,14-tetramethyl-1,4,7,11,14-pentaazacyclooctadecane-3,6,10,15,18-pentaone]
4 | 77.42 | 20.3 | C[C@H]1CNC(=O)C[C@H](Cc2ccc(Cl)cc2)N(C)C(=O)[C@H](CO)NC(=O)[C@H](C)N(Cc2ccc(Cl)cc2Oc2ccc3c(c2)C(=O)N(C2CCN(C)CC2)C3)C(=O)C[C@@H](Cc2ccccc2)C(=O)N1C [Compound 130, (2S,5S,8S,13S,16R)-16-benzyl-1-(4-chloro-2-((2-(1-methylpiperidin-4-yl)-3-oxoisoindolin-5-yl)oxy)benzyl)-8-(4-chlorobenzyl)-5-(hydroxymethyl)-2,7,13,14-tetramethyl-1,4,7,11,14-pentaazacyclooctadecane-3,6,10,15,18-pentaone]

The next lines start with the compound.

Row | Compound | Max % inhibition [%] | IC50 [nM]
5 | CCN(CC)Cc1cn(-c2ccc(Oc3cc(Cl)ccc3CN3C(=O)C[C@@H](Cc4ccccc4)C(=O)N(C)[C@@H](C)CNC(=O)C[C@H](Cc4ccc(Cl)cc4)N(C)C(=O)[C@H](COC)NC(=O)[C@@H]3C)cc2)nn1 [Compound 120, (2S,5S,8S,13S,16R)-16-benzyl-1-(4-chloro-2-(4-(4-((diethylamino)methyl)-1H-1,2,3-triazol-1-yl)phenoxy)benzyl)-8-(4-chlorobenzyl)-5-(methoxymethyl)-2,7,13,14-tetramethyl-1,4,7,11,14-pentaazacyclooctadecane-3,6,10,15,18-pentaone] | 48.04 | 23.6
6 | COC[C@@H]1NC(=O)[C@H](C)N(Cc2ccc(Cl)cc2Oc2ccc(-c3cnc4n3CCNC4)cc2)C(=O)C[C@@H](Cc2ccccc2)C(=O)N(C)[C@@H](C)CNC(=O)C[C@H](Cc2ccc(Cl)cc2)N(C)C1=O.O=C(O)C(F)(F)F [Compound 121, (2S,5S,8S,13S,16R)-16-benzyl-1-(4-chloro-2-(4-(5,6,7,8-tetrahydroimidazo[1,2-a]pyrazin-3-yl)phenoxy)benzyl)-8-(4-chlorobenzyl)-5-(methoxymethyl)-2,7,13,14-tetramethyl-1,4,7,11,14-pentaazacyclooctadecane-3,6,10,15,18-pentaone trifluoroacetate] | 59.89 | 2.8
7 | COC[C@@H]1NC(=O)[C@H](C)N(Cc2ccc(Cl)cc2Oc2ccc(-c3ccc(C(=O)NC4CCNCC4)nc3)cc2)C(=O)C[C@@H](Cc2ccccc2)C(=O)N(C)[C@@H](C)CNC(=O)C[C@H](Cc2ccc(Cl)cc2)N(C)C1=O.O=C(O)C(F)(F)F [Compound 122, 5-(4-(2-(((2S,5S,8S,13S,16R)-16-benzyl-8-(4-chlorobenzyl)-5-(methoxymethyl)-2,7,13,14-tetramethyl-3,6,10,15,18-pentaoxo-1,4,7,11,14-pentaazacyclooctadecan-1-yl)methyl)-5-chlorophenoxy)phenyl)-N-(piperidin-4-yl)picolinamide trifluoroacetate] | 55.05 | 8.7
8 | COC[C@@H]1NC(=O)[C@H](C)N(Cc2ccc(Cl)cc2Oc2ccc(-c3cnc4n3CCN(C(C)C)C4)cc2)C(=O)C[C@@H](Cc2ccccc2)C(=O)N(C)[C@@H](C)CNC(=O)C[C@H](Cc2ccc(Cl)cc2)N(C)C1=O.O=C(O)C(F)(F)F [Compound 123, (2S,5S,8S,13S,16R)-16-benzyl-1-(4-chloro-2-(4-(7-isopropyl-5,6,7,8-tetrahydroimidazo[1,2-a]pyrazin-3-yl)phenoxy)benzyl)-8-(4-chlorobenzyl)-5-(methoxymethyl)-2,7,13,14-tetramethyl-1,4,7,11,14-pentaazacyclooctadecane-3,6,10,15,18-pentaone trifluoroacetate] | 74.19 | 3.4
9 | COC[C@@H]1NC(=O)[C@H](C)N(Cc2ccc(Cl)cc2Oc2ccc(-c3cnc4n3CCN(C(=O)C3CCNC3)C4)cc2)C(=O)C[C@@H](Cc2ccccc2)C(=O)N(C)[C@@H](C)CNC(=O)C[C@H](Cc2ccc(Cl)cc2)N(C)C1=O.O=C(O)C(F)(F)F (stereo partly drawn) [Compound 124, (2S,5S,8S,13S,16R)-16-benzyl-1-(4-chloro-2-(4-(7-(pyrrolidine-3-carbonyl)-5,6,7,8-tetrahydroimidazo[1,2-a]pyrazin-3-yl)phenoxy)benzyl)-8-(4-chlorobenzyl)-5-(methoxymethyl)-2,7,13,14-tetramethyl-1,4,7,11,14-pentaazacyclooctadecane-3,6,10,15,18-pentaone trifluoroacetate] | 100.50 | 3.8
10 | C[C@H]1CNC(=O)C[C@H](Cc2ccc(Cl)cc2)N(C)C(=O)[C@H](CO)NC(=O)[C@H](C)N(Cc2ccc(Cl)cc2Oc2ccc3c(c2)C(=O)N(C2CCNCC2)C3)C(=O)C[C@@H](Cc2ccccc2)C(=O)N1C [Compound 125, (2S,5S,8S,13S,16R)-16-benzyl-1-(4-chloro-2-((3-oxo-2-(piperidin-4-yl)isoindolin-5-yl)oxy)benzyl)-8-(4-chlorobenzyl)-5-(hydroxymethyl)-2,7,13,14-tetramethyl-1,4,7,11,14-pentaazacyclooctadecane-3,6,10,15,18-pentaone] | 60.93 | 28
11 | COC[C@@H]1NC(=O)[C@H](C)N(Cc2ccc(Cl)cc2Oc2ccc(-c3cnc(CN(C)C)n3C)cc2)C(=O)C[C@@H](Cc2ccccc2)C(=O)N(C)[C@@H](C)CNC(=O)C[C@H](Cc2ccc(Cl)cc2)N(C)C1=O [Compound 126, (2S,5S,8S,13S,16R)-16-benzyl-1-(4-chloro-2-(4-(2-((dimethylamino)methyl)-1-methyl-1H-imidazol-5-yl)phenoxy)benzyl)-8-(4-chlorobenzyl)-5-(methoxymethyl)-2,7,13,14-tetramethyl-1,4,7,11,14-pentaazacyclooctadecane-3,6,10,15,18-pentaone] | 101.12 | 1.5

From US20230089867A1, “CYCLIC PENTAMER COMPOUNDS AS PROPROTEIN CONVERTASE SUBTILISIN/KEXIN TYPE 9 (PCSK9) INHIBITORS FOR THE TREATMENT OF METABOLIC DISORDER” (Novartis AG, priority 2018, published 2023)
